Earlier results in paper PMC2988205 (Medicinal Chemistry Research, 2009).
pEC50: −log10 of the molar value.

Test system: β3-AR
Details: read-out: β3 EC50; β3-AR partial agonist; ref Naylor et al., 1998

## C[C@H](Cc1ccc(OCC(=O)O)cc1)NC[C@H](O)c1cccc(Cl)c1 [BRL-37344]
  pEC50: 6.35
